Data as given in ChEMBL document CHEMBL5620379, “Discovery, SAR and mechanistic studies of quinazolinone-based acetamide derivatives in experimental visceral leishmaniasis” (Eur J Med Chem, 2023).
Active and inactive are the calls of the source. The rule behind the calls is not given here.

Legend:
Leishmania donovani [1] = assay: Antileishmanial activity against Leishmania donovani promastigotes at 25 uM measured after 48 hrs by MTT assay relative to control; format: functional
Leishmania donovani [2] = assay: Induction of cell cycle arrest in Leishmania donovani promastigotes assessed as accumulation of cells at G2/M phase at 25 uM measured after 12 hrs by PI staining based flow cytometry analysis (reference value: 35.7%); format: functional
Leishmania donovani [3] = assay: Antileishmanial activity against amastigote form of Leishmania donovani infected in BALB/c mouse assessed as inhibition of parasite growth in liver at 10 mg/kg, po measured after 1 week post treatment by geimsa staining based analysis relative to control; format: functional; design: scale not given: the % may be the effect or the level left; settings: time 1 weeks
Splenocyte = assay: Immunostimulatory activity in mouse splenocyte assessed as decrease in IL-10 secretion at 10 to 40 mg/kg measured after 1 week by RT-PCR analysis relative to control; format: functional; design: scale not given: the % may be the effect or the level left; settings: dose 10-40 mg/kg, time 1 weeks
Leishmania donovani [4] = assay: Induction of autophagy in Leishmania donovani promastigotes assessed as fold induction of ATG12 gene at 25 uM measured after 24 hrs by RT-PCR analysis; format: functional
J774 [5] = assay: Downregulation of GSK-3beta phosphorylation in mouse J774 macrophage infected with Leishmania donovani at 25 uM measured after 8 to 12 hrs by immunoblot analysis; format: functional, cell-based; settings: time 8-12 hrs
Leishmania donovani [6] = assay: Antileishmanial activity against Leishmania donovani promastigotes assessed as decrease in intracellular proline level at 25 uM measured after 24 hrs (reference value: 6.27 mM); format: functional
Leishmania donovani [7] = assay: Induction of autophagy in Leishmania donovani promastigotes assessed as fold induction of ATG5 gene at 25 uM measured after 24 hrs by RT-PCR analysis; format: functional
[8] = Renal toxicity in golden hamster assessed as effect on urea level at 40 mg/kg, po measured after 28 days post infection; format: organism-based, Mesocricetus auratus; settings: in vivo, 672 h, time 28 day
Leishmania donovani [9] = assay: Antileishmanial activity against Leishmania donovani amastigotes infected in J774 macrophage assessed as inhibition of parasite growth incubated for 48 hrs by luciferase assay; format: functional, organism-based; settings: J774, 48 h
Leishmania donovani [10] = assay: Antileishmanial activity against amastigote form of Leishmania donovani infected in BALB/c mouse assessed as inhibition of parasite growth in spleen at 20 mg/kg, po measured after 1 week post treatment by geimsa staining based analysis relative to control; format: functional; design: scale not given: the % may be the effect or the level left; settings: time 1 weeks
[11] = Selectivity index, ratio of CC50 for mouse J774 macrophage to IC50 for Leishmania donovani amastigotes infected in J774 macrophage; format: toxicity; settings: J774 macrophages, read-out: Ratio CC50/IC50
Leishmania donovani [12] = assay: Induction of apoptosis in Leishmania donovani promastigotes assessed as late phase apoptosis at 25 uM measured after 48 hrs by DNA laddering assay; format: functional, organism-based
Leishmania donovani [13] = assay: Antileishmanial activity against Leishmania donovani infected in golden hamster assessed as inhibition of parasite growth in liver at 80 mg/kg, po administered for 7 days and measured after 28 days by giemsa staining based analysis relative to control; format: functional; design: scale not given: the % may be the effect or the level left; settings: time 28 day
[14] = Toxicity in BALB/c mouse assessed as effect on body weight at 10 to 40 mg/kg, po measured after 1 week; format: organism-based; settings: in vivo, 168 h, dose 10-40 mg/kg, time 1 weeks
[15] = Renal toxicity in golden hamster assessed as effect on creatinine level at 40 mg/kg, po measured after 28 days post infection; format: organism-based, Mesocricetus auratus; settings: in vivo, 672 h, time 28 day
Leishmania donovani [16] = assay: Antileishmanial activity against Leishmania donovani infected in golden hamster assessed as inhibition of parasite growth in spleen at 40 mg/kg, po administered for 7 days and measured after 28 days by giemsa staining based analysis relative to control; format: functional; design: scale not given: the % may be the effect or the level left; settings: time 28 day
J774 [17] = assay: Immunostimulatory activity in mouse J774 macrophage infected with Leishmania donovani assessed as fold increase in IL-12 level at 25 uM measured after 24 hrs by RT-PCR analysis; format: functional
Leishmania donovani [18] = assay: Induction of cell cycle arrest in Leishmania donovani promastigotes assessed as accumulation of cells at G2/M phase at 25 uM measured after 8 hrs by PI staining based flow cytometry analysis (reference value: 35.7%); format: functional
Leishmania donovani [19] = assay: Antileishmanial activity against amastigote form of Leishmania donovani infected in BALB/c mouse assessed as inhibition of parasite growth in spleen at 10 mg/kg, po measured after 1 week post treatment by geimsa staining based analysis relative to control; format: functional; design: scale not given: the % may be the effect or the level left; settings: time 1 weeks
Leishmania donovani [20] = assay: Antileishmanial activity against Leishmania donovani infected in golden hamster assessed as inhibition of parasite growth in spleen at 80 mg/kg, po administered for 7 days and measured after 28 days by giemsa staining based analysis relative to control; format: functional; design: scale not given: the % may be the effect or the level left; settings: time 28 day
Leishmania donovani [21] = assay: Antileishmanial activity against Leishmania donovani infected in golden hamster assessed as inhibition of parasite growth in liver at 40 mg/kg, po administered for 7 days and measured after 28 days by giemsa staining based analysis relative to control; format: functional; design: scale not given: the % may be the effect or the level left; settings: time 28 day
[22] = Stability of the compound in stimulated gastric fluid at 10 ug/ml at pH 1.2 measured upto 120 min by HPLC analysis; format: ADME; settings: simulated gastric fluid, at 10 µg/mL, read-out: Stability
[23] = Toxicity in golden hamster infected with Leishmania donovani assessed as reduction in serum AST level at 40 mg/kg ,po and measured after 28 days post infection (reference value: 82.72 IU/L); format: organism-based, Mesocricetus auratus; settings: in vivo, 672 h, time 28 day
J774 [24] = assay: Downregulation of CREB phosphorylation level at Ser133 residue in mouse J774 macrophage infected with Leishmania donovani at 25 uM measured after 12 to 16 hrs by immunoblot analysis; format: functional, cell-based; settings: time 12-16 hrs
Leishmania donovani [25] = assay: Induction of cell cycle arrest in Leishmania donovani promastigotes assessed as accumulation of cells at G1 phase at 25 uM measured after 12 hrs by PI staining based flow cytometry analysis (reference value: 35.7%); format: functional
Leishmania donovani [26] = assay: Antileishmanial activity against amastigote form of Leishmania donovani infected in BALB/c mouse assessed as inhibition of parasite growth in liver at 20 mg/kg, po measured after 1 week post treatment by geimsa staining based analysis relative to control; format: functional; design: scale not given: the % may be the effect or the level left; settings: time 1 weeks
Leishmania donovani [27] = assay: Induction of cell cycle arrest in Leishmania donovani promastigotes assessed as accumulation of cells at G1 phase at 25 uM measured after 8 hrs by PI staining based flow cytometry analysis (reference value: 35.7%); format: functional
[28] = Toxicity in BALB/c mouse assessed as effect on skin texture at 10 to 40 mg/kg, po measured after 1 week; format: organism-based; settings: in vivo, 168 h, dose 10-40 mg/kg, time 1 weeks
Leishmania donovani [29] = assay: Induction of autophagy in Leishmania donovani promastigotes assessed as increase in number of MDC-positive parasite by measuring MDC-labelled vacuoles at 25 uM measured after 24 hrs by MDC staining based analysis; format: functional, organism-based
J774 [30] = assay: Cytotoxicity against mouse J774 cells at 50 uM incubated for 72 hrs by MTT assay relative to control; format: toxicity, cell-based; settings: j774, 72 h
Leishmania donovani [31] = assay: Induction of apoptosis in Leishmania donovani promastigotes assessed as appearance of disorganised mitochondrial cristae at 25 uM by transmission electron microscopy analysis; format: functional, organism-based
Leishmania donovani [32] = assay: Antileishmanial activity against Leishmania donovani promastigotes at 25 uM measured after 12 hrs in presence of antipain by luciferase assay relative to control; format: functional
Leishmania donovani [33] = assay: Antileishmanial activity against amastigote form of Leishmania donovani infected in BALB/c mouse assessed as inhibition of parasite growth in spleen at 40 mg/kg, po measured after 1 week post treatment by geimsa staining based analysis relative to control; format: functional; design: scale not given: the % may be the effect or the level left; settings: time 1 weeks
J774 [34] = assay: Cytotoxicity against mouse J774 cells at 12.5 uM incubated for 72 hrs by MTT assay relative to control; format: toxicity, cell-based; settings: j774, 72 h

**Q.** For `Cn1c(-c2ccc(OCC(=O)Nc3ccccn3)cc2)nc2ccccc2c1=O`, which Activity (Leishmania donovani [1]) is on record?
**A.** Its Activity is 85.64%.

**Q.** What about the Activity (Leishmania donovani [2]) of the same compound?
**A.** Its Activity is 18.7%.

**Q.** And the Activity (Leishmania donovani [3])?
**A.** Its Activity is >50%.

**Q.** And the Activity (Splenocyte)?
**A.** The Activity was 47.69%.

**Q.** And the “fold change (FC)” value (Leishmania donovani [4])?
**A.** Its value is 8.57.

**Q.** And the Activity (J774 [5])?
**A.** Its Activity is “Active”.

**Q.** And the Activity (Leishmania donovani [6])?
**A.** The Activity was 2.96 mM.

**Q.** What about the “fold change (FC)” value (Leishmania donovani [7]) of the same compound?
**A.** The value was 2.84.

**Q.** What about the Activity [8] of the same compound?
**A.** The Activity was “Non-Toxic”.

**Q.** What about the IC50 (Leishmania donovani [9]) of the same compound?
**A.** Its IC50 is 3.55 µM.

**Q.** What about the Activity (Leishmania donovani [10]) of the same compound?
**A.** Its Activity is >50%.

**Q.** What about the selectivity ratio [11] of the same compound?
**A.** The selectivity ratio was 18.3.

**Q.** What about the Activity (Leishmania donovani [12]) of the same compound?
**A.** Its Activity is “Active”.

**Q.** And the Activity (Leishmania donovani [13])?
**A.** Its Activity is 86.5%.

**Q.** What about the Activity [14] of the same compound?
**A.** Its Activity is “Non-Toxic”.

**Q.** What about the Activity [15] of the same compound?
**A.** Its Activity is “Non-Toxic”.

**Q.** What about the Activity (Leishmania donovani [16]) of the same compound?
**A.** Its Activity is 68.4%.

**Q.** And the “fold change (FC)” value (J774 [17])?
**A.** The value was 3.4.

**Q.** And the Activity (Leishmania donovani [18])?
**A.** Its Activity is 23.8%.

**Q.** And the Activity (Leishmania donovani [19])?
**A.** The Activity was >50%.

**Q.** What about the Activity (Leishmania donovani [20]) of the same compound?
**A.** The Activity was 85.8%.

**Q.** And the Activity (Leishmania donovani [21])?
**A.** The Activity was 66.7%.

**Q.** And the remaining at 2 h, 10 ug/ml [22]?
**A.** The remaining at 2 h, 10 ug/ml was 94.5%.

**Q.** What about the Activity [23] of the same compound?
**A.** The Activity was 123.38 IU/L.

**Q.** And the Activity (J774 [24])?
**A.** Its Activity is “Active”.

**Q.** What about the Activity (Leishmania donovani [25]) of the same compound?
**A.** The Activity was 65.8%.

**Q.** And the Activity (Leishmania donovani [26])?
**A.** Its Activity is >50%.

**Q.** What about the Activity (Leishmania donovani [27]) of the same compound?
**A.** The Activity was 55.5%.

**Q.** What about the Activity [28] of the same compound?
**A.** The Activity was “Non-Toxic”.

**Q.** What about the Activity (Leishmania donovani [29]) of the same compound?
**A.** The Activity was “Active”.

**Q.** And the Activity (J774 [30])?
**A.** The Activity was 52.15%.

**Q.** And the Activity (Leishmania donovani [31])?
**A.** Its Activity is “Active”.

**Q.** What about the Activity (Leishmania donovani [32]) of the same compound?
**A.** Its Activity is 40.44%.

**Q.** What about the Activity (Leishmania donovani [33]) of the same compound?
**A.** The Activity was 86.3%.

**Q.** And the Activity (J774 [34])?
**A.** The Activity was 90.78%.
